Experiments:
CETP = target: T1, CETP (Homo sapiens, UniProt P11597); assay: CETP fluorescence test; type: biochemical; conditions: CETP from human plasma, 37° C., 4 hours; read-out: IC50 (nM) Fluor. test
T1 construct: CETP is obtained in partially purified form from human plasma; from tissue; host or cells: human plasma
T1 sequence (P11597 18-493): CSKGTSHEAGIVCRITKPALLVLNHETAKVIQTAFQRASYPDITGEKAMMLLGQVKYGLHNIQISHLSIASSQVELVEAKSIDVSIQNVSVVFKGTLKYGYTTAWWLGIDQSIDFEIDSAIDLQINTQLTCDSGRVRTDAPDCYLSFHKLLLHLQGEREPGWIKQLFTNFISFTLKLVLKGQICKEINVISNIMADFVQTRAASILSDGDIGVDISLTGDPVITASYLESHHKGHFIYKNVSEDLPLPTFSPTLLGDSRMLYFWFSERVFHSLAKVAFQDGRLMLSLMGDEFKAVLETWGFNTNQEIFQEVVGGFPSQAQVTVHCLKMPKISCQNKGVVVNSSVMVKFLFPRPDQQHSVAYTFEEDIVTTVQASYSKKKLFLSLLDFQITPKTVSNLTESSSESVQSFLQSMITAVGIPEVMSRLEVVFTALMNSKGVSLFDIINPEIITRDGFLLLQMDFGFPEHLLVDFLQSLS
Method: CETP is obtained in partially purified form from human plasma by differential centrifugation and column chromatography and used for the test. To this end, human plasma is adjusted to a density of 1.21 g per ml using NaBr and centrifuged at 4° C. at 50000 rpm for 18 h. The bottom fraction (d>1.21 g/ml) is applied to a Sephadex® Phenyl-Sepharose 4B (Pharmacia) column, washed with 0.15 M NaCl/0.001 M tris HCl pH 7.4 and then eluted with dist. water. Die CETP-active fractions are pooled, dialysed against 50 mM Na acetate pH 4.5 and applied to a CM-Sepharose® (Pharmacia) column. The mixture is then eluted using a linear gradient (0-1 M NaCl). The pooled CETP fractions are dialysed against 10 mM TrisHCl pH 7.4 and then further purified by chromatography on a Mono Q® column (Pharmacia).
Measurement of the CETP-catalysed transfer of a fluorescent cholesterol ester between liposomes—modified according to the procedure of Bisgaier et al., J. Lipid Res. 34, 1625 (1993).
For the production of the donor liposomes, 1 mg of cholesteryl 4,4-difluoro-5,7-dimethyl-4-bora-3a,4a-diaza-s-indacene-3-dodecanoate (cholesteryl BODIPY® FL C12, Molecular Probes) is dissolved in 600 μl of dioxane with 5.35 mg of triolein and 6.67 mg of phosphatidylcholine with gentle warming in an ultrasonic bath and this solution is added very slowly with ultrasonication to 63 ml of 50 mM tris/HCl, 150 mM NaCl, 2 mM EDTA buffer pH 7.3 at RT.
The suspension is then ultrasonicated under an N2 atmosphere for 30 minutes in the Braukson ultrasonic bath at about 50 watts, the temperature being kept at about 20° C.
The acceptor liposomes are obtained analogously from 86 mg of cholesteryl oleate, 20 mg of triolein and 100 mg of phosphatidylcholine dissolved in 1.2 ml of dioxane and 114 ml of above buffer by ultrasonication at 50 watts (20° C.) for 30 minutes.
For testing, a test mix consisting of 1 part of above buffer, 1 part of donor liposomes and 2 parts of acceptor liposomes is used.
80 μl of test mix are treated with 1-3 μg of enriched CETP fraction, obtained from human plasma by means of hydrophobic chromatography, and 2 μl of the substance to be investigated in DMSO and incubated at 37° C. for 4 hours.
The change in the fluorescence at 485/535 nm is a measure of the CE transfer; the inhibition of the transfer in comparison to the control batch without substance is determined.

Syrian golden hamsters = assay: In vivo activity in Syrian golden hamsters (HDL cholesterol); conditions: perorally
Method: In experiments for the determination of the oral action on lipoproteins and triglycerides, test substance dissolved in DMSO and 0.5% suspended in Tylose are administered perorally by means of a stomach tube to Syrian golden hamsters bred in-house. For the determination of the CETP activity, before the start of the experiment blood is taken by retro-orbital puncture (about 250 μl). The test substances are then administered perorally by means of a stomach tube. The control animals receive identical volumes of solvent without test substance. The feed is then withdrawn from the animals and blood is taken at various times—up to 24 hours after substance administration—by puncture of the retroorbital venous plexus.
Clotting is terminated by incubation at 4° C. overnight, then centrifugation is carried out for 10 minutes at 6000×g. The content of cholesterol and triglycerides in the serum thus obtained is determined with the aid of modified commercially obtainable enzymatic tests (Ecoline 25 Cholesterol 1.14830.0001 Merck Diagnostica, Ecoline 25 Triglycerides 1.14856.0001 Merck Diagnostica). Serum is suitably diluted using physiological saline solution.
10 μl of serum dilution are treated with 200 μl of Ecoline 25 reagent in 96-hole plates and incubated for 10 minutes at room temperature. The optical density is then determined at a wavelength of 490 nm using an automatic plate reader. The triglyceride or cholesterol concentration contained in the samples is determined with the aid of a standard curve measured in parallel.
The determination of the content of HDL cholesterol is carried out after precipitation of the ApoB-containing lipoproteins (Sigma 352-4 HDL cholesterol reagent) according to the manufacturer's instructions.

transgenic hCETP mice = assay: In vivo activity in transgenic hCETP mice (HDL); conditions: stomach tube
Method: In experiments for the determination of the oral action on lipoproteins and triglycerides, test substance is administered to transgenic mice using a stomach tube (Dinchuck, Hart, Gonzalez, Karmann, Schmidt, Wirak; BBA (1995), 1295, 301). Before the start of the experiment, blood is taken from the mice retroorbitally in order to determine cholesterol and triglycerides in the serum. The serum is obtained as described above for hamsters by incubation at 4° C. overnight and subsequent centrifugation at 6000×g. […] The change in the parameters measured is expressed as the percentage change compared with the starting value.

Row | Compound | IC50 (CETP) | % HDL increase after 24 h (Dose: 2 × 10 mg/kg) (Syrian golden hamsters) | % HDL increase after 4 d (Dose: 4 × 10 mg/kg) (transgenic hCETP mice)
1 | CC(C)c1nc2c(c(-c3ccc(F)cc3)c1[C@@H](O)c1ccc(C(F)(F)F)cc1)[C@@H](O)CC1(CCC1)C2 [Example 51, (5S)-2-Isopropyl-4-(4-fluorophenyl)-3-[(S)-hydroxy-(4-trifluoromethylphenyl)-methyl]-7-spirocyclobutyl-5,6,7,8-tetrahydroquinolin-5-ol] | 12 nM | 17% | 57%
2 | CC(C)c1nc2c(c(-c3ccccc3)c1[C@@H](O)c1ccc(C(F)(F)F)cc1)[C@@H](O)CC1(CCC1)C2 [Example 53, (5S)-2-Isopropyl-4-phenyl-3-[(S)-hydroxy-(4-trifluoromethylphenyl)-methyl]-7-spirocyclobutyl-5,6,7,8-tetrahydroquinolin-5-ol] | 30 nM | 19% | 
3 | CC(C)c1nc2c(c(-c3cccs3)c1[C@@H](O)c1ccc(C(F)(F)F)cc1)[C@@H](O)CC1(CCC1)C2 [Example 61, (5S)-2-Isopropyl-4-(2-thienyl)-3-[(S)-hydroxy-(4-trifluoromethylphenyl)-methyl]-7-spirocyclobutyl-5,6,7,8-tetrahydroquinolin-5-ol] | 30 nM |  | 
